Results on 72 compounds are retold here after the RepoRT retention time repository (doi:10.1016/j.jhazmat.2019.121712).

This data set is described as follows: Thermo Scientific Acclaim RSLC 120 C18, 100 × 2.1 mm, 2.2 µm, 30 °C; A: 90% water + 10% methanol + 0.01% formic acid + 5 mM ammonium formate; B: methanol + 0.01% formic acid + 5 mM ammonium formate; gradient (min/%B) 0.1/1 3/39 14/99.9 16/99.9. To be noted: stereoisomer not certain.
As for `CN(C)CCOCC(=O)NC12CC3CC(CC(C3)C1)C2`, the LC retention time stood at 6.64 min.

As to `CCOP(=S)(Oc1ccc(C#N)cc1)c1ccccc1` (configuration not stated), the LC retention time is 10.9 min.

On to `O=P(Oc1ccccc1)(Oc1ccccc1)Oc1ccccc1`, for which the LC retention time turned out to be 11 min.

As for `CCCCCc1cc(O)c2c(c1)OC(C)(C)C1CCC(C(=O)O)=CC21` (configuration not stated), the LC retention time came to 12.5 min.

For the compound `CCCc1nn(C)c2c(=O)[nH]c(-c3cc(C(=O)CN4CCN(CCO)CC4)ccc3OCC)nc12`, the LC retention time is 6.94 min.

`CC(C)OC(=O)Nc1ccc2nc(-c3cscn3)[nH]c2c1`: the LC retention time amounted to 7.66 min.

Take `CN(Cc1cnc2nc(N)nc(N)c2n1)c1ccc(C(=O)NC(CCC(=O)O)C(=O)O)cc1` (configuration not stated): the LC retention time is 3.96 min.

Take `CC(Cc1ccc(C(C)(C)C)cc1)CN1CCCCC1` (configuration not stated): the LC retention time was 8.62 min.

On to `Cc1cnc(NC(=O)C2=C(O)c3ccccc3S(=O)(=O)N2C)s1`, for which the LC retention time was 7.09 min.

`CCCc1nc(C)c2c(=O)[nH]c(-c3cc(C(=O)CN4CCN(CC)CC4)ccc3OCC)nn12`: the LC retention time was determined as 7.16 min.

With `CCNC(C)Cc1ccccc1` (configuration not stated), the LC retention time stood at 4.4 min.

Turning to `c1ccc(C(c2ccccc2)C2CCCCN2)cc1` (configuration not stated), the LC retention time is 6.3 min.

Regarding `CCOP(=S)(OCC)Oc1cc(-c2ccccc2)on1`, the LC retention time turned out to be 11.3 min.

For `CC(=O)CCCCn1c(=O)c2c(ncn2C)n(C)c1=O`, the LC retention time turned out to be 5.23 min.

Take `CCC(C)CC(C)N` (configuration not stated): the LC retention time came out at 4.68 min.

Take `COc1ccc2nc(S(=O)Cc3ncc(C)c(OC)c3C)[nH]c2c1` (configuration not stated): the LC retention time came to 7.81 min.

With `CCCOP(=O)(OCCC)Oc1ccc(SC)cc1`, the LC retention time turned out to be 10.8 min.

For `CCCCCn1cc(C(=O)Nc2cccc3ccccc23)c2ccccc21`, the LC retention time came out at 11.7 min.

For the compound `COc1ccc(C(=O)c2cn(CCCCCO)c3ccccc23)cc1`, the LC retention time amounted to 9.18 min.

Take `CNC(=O)C=C(C)OP(=O)(OC)OC`: the LC retention time was determined as 4.36 min.

Turning to `COCCOc1c(OC)cc(Cc2cnc(N)nc2N)cc1OC`, the LC retention time was determined as 4.24 min.

On to `CC1(C)C(C(=O)c2cn(CC3CCOCC3)c3ccccc23)C1(C)C`, for which the LC retention time stood at 11.4 min.

Consider `CC12CCC(=O)C=C1CCC1C2CCC2(C)C1CCC2(C)O` (configuration not stated), for which the LC retention time turned out to be 10.4 min.

`CC(C)C1(C)N=C(c2nc3ccccc3cc2C(=O)O)NC1=O` (configuration not stated): the LC retention time turned out to be 6.1 min.

As to `CC(=O)NCCCS(=O)(=O)O`, the LC retention time amounted to 1.4 min.

Regarding `CC1C(=O)OC2CC[N+]3([O-])CC=C(COC(=O)C(C)(O)C1(C)O)C23` (configuration not stated), the LC retention time amounted to 3.19 min.

Regarding `COC1C(OC(N)=O)C(O)C(Oc2ccc3c(O)c(NC(=O)c4ccc(O)c(CC=C(C)C)c4)c(=O)oc3c2C)OC1(C)C` (configuration not stated), the LC retention time stood at 11.2 min.

For `Cn1cnc2c1c(=O)[nH]c(=O)n2C`, the LC retention time worked out at 3.28 min.

Regarding `COc1ccccc1OCC(O)COC(N)=O` (configuration not stated), the LC retention time was found to be 5.21 min.

In the case of `CN1C(=O)CC(C)(c2ccccc2)C1=O` (configuration not stated), the LC retention time was determined as 6.71 min.

Regarding `CC(CN(C)C)CN1c2ccccc2CCc2ccccc21` (configuration not stated), the LC retention time is 8.31 min.

As for `CNC(C)Cc1ccccc1OC` (configuration not stated), the LC retention time worked out at 4.69 min.

Regarding `CN1CCN(CCCN2c3ccccc3Sc3ccc(S(=O)(=O)N(C)C)cc32)CC1`, the LC retention time was 8.15 min.

As to `CN(C)C(CSS(=O)(=O)c1ccccc1)CSS(=O)(=O)c1ccccc1`, the LC retention time turned out to be 9.6 min.

For `CC(=O)N=c1sc(S(N)(=O)=O)nn1C`, the LC retention time was determined as 4.28 min.

As for `CCOP(=S)(OCC)SCSC(C)(C)C`, the LC retention time worked out at 12.2 min.

`CNC(=O)Oc1ccccc1C1OCCO1`: the LC retention time was 5.16 min.

For `CCC(C)C1OC2(CCC1C)CC1CC(CC=C(C)C(OC3CC(OC)C(OC4CC(OC)C(O)C(C)O4)C(C)O3)C(C)C=CC=C3COC4C(O)C(C)=CC(C(=O)O1)C34O)O2` (configuration not stated), the LC retention time worked out at 14.4 min.

Turning to `CC(=O)Oc1ccc(C(c2ccc(OC(C)=O)cc2)c2ccccn2)cc1`, the LC retention time is 8.92 min.

With `CCCC1CC(C(=O)NC(C(C)O)C2OC(SC)C(O)C(O)C2O)N(C)C1` (configuration not stated), the LC retention time is 4.08 min.

Turning to `CNC(=O)Oc1cccc2c1OC(C)(C)O2`, the LC retention time amounted to 7.02 min.

With `CCNc1nc(NC(C)C)[nH]c(=O)n1`, the LC retention time came out at 5.03 min.

`CCOC(=O)C1=NOC(c2ccccc2)(c2ccccc2)C1`: the LC retention time was determined as 10.7 min.

For the compound `Cc1cccc(Nc2ccccc2C(=O)O)c1C`, the LC retention time was found to be 11.6 min.

Regarding `COC(=O)C1C(OC(=O)c2ccccc2)CC2CCC1N2C` (configuration not stated), the LC retention time came out at 4.84 min.

For the compound `CCn1cc(C(=O)O)c(=O)c2cc3c(cc21)OCO3`, the LC retention time came out at 6.03 min.

As for `CC(O)CCCn1cc(C(=O)c2cccc3ccccc23)c2ccccc21` (configuration not stated), the LC retention time is 10.1 min.

For the compound `CC12CCC(=O)C=C1CCC1C2CCC2(C)C(C(=O)CO)CCC12` (configuration not stated), the LC retention time stood at 13.7 min.

For `O=C(O)c1ccccc1C(=O)Nc1ccc(S(=O)(=O)Nc2nccs2)cc1`, the LC retention time was determined as 4.66 min.

In the case of `Oc1ccc(C=Cc2cc(O)cc(O)c2)cc1`, the LC retention time turned out to be 5.93 min.

Turning to `O=C1c2ccccc2C(=O)C1C(=O)C(c1ccccc1)c1ccccc1`, the LC retention time worked out at 8.6 min.

`O=c1cn[nH][nH]1`: the LC retention time is 5.99 min.

In the case of `C=CCOc1ccccc1OCC(O)CNC(C)C` (configuration not stated), the LC retention time was 5.66 min.

In the case of `NC(N)=NC(N)=NCCc1ccccc1`, the LC retention time stood at 4.38 min.

On to `O=c1[nH]c2ccccc2n1CCCN1CCN(C(c2ccccc2)c2ccccc2)CC1`, for which the LC retention time came to 8.42 min.

As for `COC(=O)Nc1nc2ccc(Sc3ccccc3)cc2[nH]1`, the LC retention time was 10.3 min.

For `CC(C)CNC(=O)N1CCNC1=O`, the LC retention time was determined as 5.74 min.

As to `CN1CCC23c4c5ccc(OC6OC(C(=O)O)C(O)C(O)C6O)c4OC2C(O)C=CC3C1C5` (configuration not stated), the LC retention time stood at 1.63 min.

For the compound `CC(N)C(=O)c1ccccc1` (configuration not stated), the LC retention time stood at 3.59 min.

With `Nc1c2c(nc3ccccc13)CCCC2`, the LC retention time was 4.77 min.

As to `COc1ccccc1OCC(O)CO` (configuration not stated), the LC retention time came to 5.11 min.

Take `CN1CCN(C)C1=O`: the LC retention time was 3.53 min.

In the case of `CCCSP(=S)(OCC)Oc1ccc(SC)cc1` (configuration not stated), the LC retention time came out at 12.8 min.

In the case of `CCCCCn1cc(C(=O)NCc2ccccc2)c2ccccc21`, the LC retention time was 11.2 min.

On to `COc1ccc2c3c1OC1C(=O)CCC4(O)C(C2)NCCC314` (configuration not stated), for which the LC retention time worked out at 3.71 min.

In the case of `NC(Cc1cnc[nH]1)C(=O)O` (configuration not stated), the LC retention time was found to be 1.23 min.

Regarding `COc1nccnc1NS(=O)(=O)c1ccc(N)cc1`, the LC retention time came out at 4.44 min.

`Nc1nc(N)nc(NC2CC2)n1`: the LC retention time was found to be 2.78 min.

On to `CN1CCN(C(c2ccccc2)c2ccccc2)CC1`, for which the LC retention time was 6.94 min.

For `C=C1CC(=CC)C(=O)OC2CCN3CC=C(COC(=O)C1(C)O)C23` (configuration not stated), the LC retention time turned out to be 4.17 min.

Regarding `CSc1nnc(C(C)(C)C)c(=O)[nH]1`, the LC retention time came to 7.46 min.

With `CN1CCC23c4c5ccc(O)c4OC2C(=O)CCC3(O)C1C5` (configuration not stated), the LC retention time came out at 2.75 min.
